# Patent US20130203798A1, “DIAGNOSIS AND TREATMENT OF FUNCTIONAL DYSPEPSIA AND IRRITABLE BOWEL SYNDROME” (EV MED, priority 2012, published 2013)
# Columns and labels:
# [1] = tested on: enteroviruses; assay: In vitro inhibition of four enteroviruses in interferon pre-treated, chronically infected cells (summary); type: cell-based, enterovirus; details: cells pre-treated with interferon to produce chronic infection; four enteroviruses tested
# Procedure: (§1) Oxymatrine is an alkaloid with antiviral and immune boosting effect. […] 200,000 BGMK-DAF cells were infected with coxsackievirus B3,4 (CVB3,4) or echovirus 6,7 (Echo V6,7), previously titrated to cause complete lysis of cells in 48-72 hours, then treated with 0.18 μg of peg-interferon α-2a in 4 hours and 90 hours. Oxymatrine was added at 162 hours post-infection. Viral RNA, expressed in log10 was quantified by qRT-PCR with a cDNA standard, and reduction of log viral RNA calculated based on no-treatment wells. Duplicate wells were combined for viral RNA determination.
# [2] = tested on: echovirus 6 (EchoV 6); assay: Inhibition of enterovirus replication in chronically infected BGMK-DAF cells, viral RNA by qRT-PCR; type: cell-based; details: EchoV 6, BGMK-DAF cells; for Viral RNA Log10: no treatment 5.00
# Procedure: as §1
# [3] = tested on: echovirus 7 (EchoV 7); assay: as above; type: cell-based; details: EchoV 7, BGMK-DAF cells; for Viral RNA Log10: no treatment 5.61
# Procedure: as §1
# [4] = tested on: coxsackievirus B4 (CVB4); assay: as above; type: cell-based; details: for Viral RNA Log10: no treatment 4.20
# Procedure: as §1
# [5] = tested on: coxsackievirus B3 (CVB3); assay: as above; type: cell-based; details: for Viral RNA Log10: no treatment 6.84
# Procedure: as §1
compound,measurement,setting,value
"O=C1CCC[C@@H]2[C@H]3CCC[N@+]4([O-])CCC[C@@H](CN12)[C@@H]34 [Oxymatrine, oxymatrine]",Inhibition of enteroviruses in vitro,[1],significant inhibition of two out of four enteroviruses
same,Dec Log10 (reduction of log viral RNA vs no-treatment wells),[2]; 1 μM oxymatrine,0.00 Log10
same,Viral RNA Log10,[2]; 1 μM oxymatrine,5.00 Log10
same,Dec Log10 (reduction of log viral RNA vs no-treatment wells),[2]; 10 μM oxymatrine,0.37 Log10
same,Viral RNA Log10,[2]; 10 μM oxymatrine,5.37 Log10
same,Dec Log10 (reduction of log viral RNA vs no-treatment wells),[2]; 100 μM oxymatrine,0.00 Log10
same,Viral RNA Log10,[2]; 100 μM oxymatrine,5.00 Log10
same,Dec Log10 (reduction of log viral RNA vs no-treatment wells),[3]; 1 μM oxymatrine,−0.28 Log10
same,Viral RNA Log10,[3]; 1 μM oxymatrine,5.33 Log10
same,Dec Log10 (reduction of log viral RNA vs no-treatment wells),[3]; 10 μM oxymatrine,−0.17 Log10
same,Viral RNA Log10,[3]; 10 μM oxymatrine,5.45 Log10
same,Dec Log10 (reduction of log viral RNA vs no-treatment wells),[3]; 100 μM oxymatrine,0.22 Log10
same,Viral RNA Log10,[3]; 100 μM oxymatrine,5.83 Log10
same,Dec Log10 (reduction of log viral RNA vs no-treatment wells),[4]; 1 μM oxymatrine,−0.55 Log10
same,Viral RNA Log10,[4]; 1 μM oxymatrine,3.66 Log10
same,Dec Log10 (reduction of log viral RNA vs no-treatment wells),[4]; 10 μM oxymatrine,−4.20 Log10
same,Viral RNA Log10,[4]; 10 μM oxymatrine,0.00 Log10
same,Dec Log10 (reduction of log viral RNA vs no-treatment wells),[4]; 100 μM oxymatrine,−3.90 Log10
same,Viral RNA Log10,[4]; 100 μM oxymatrine,0.30 Log10
same,Dec Log10 (reduction of log viral RNA vs no-treatment wells),[5]; 1 μM oxymatrine,−6.24 Log10
same,Viral RNA Log10,[5]; 1 μM oxymatrine,0.60 Log10
same,Dec Log10 (reduction of log viral RNA vs no-treatment wells),[5]; 10 μM oxymatrine,−6.54 Log10
same,Viral RNA Log10,[5]; 10 μM oxymatrine,0.30 Log10
same,Dec Log10 (reduction of log viral RNA vs no-treatment wells),[5]; 100 μM oxymatrine,−5.54 Log10
same,Viral RNA Log10,[5]; 100 μM oxymatrine added 162 h post-infection,1.30 Log10
